Article PMC7897990, “TriTOX: A novel Trichomonas vaginalis assay platform for high-throughput screening of compound libraries” (International Journal for Parasitology: Drugs and Drug …, 2021)
Like-named read-outs stand apart in the source and are kept apart here.

How the values were obtained:
[1] = tested on: Bacillus subtilis (ATCC 6633); format: cell-based; details: 5 μg/mL
T. foetus = assay: Medium-throughput (MTS) confirmatory dose-response growth assay, T. foetus; format: cell-based, Tritrichomonas foetus; details: 48 h; for IC50: Tritrichomonas foetus, 96-well, 10,000 cells/mL in 50 μL, mean ± SEM, >10 = no appreciable activity at highest dose
Description: (§1) For microtiter plate assays, trichomonads were grown in anaerobic conditions within GasPak EZ anaerobe pouches with fresh anaerobic sachets. Working reagent of the chromogen was phenol red (Sigma) in a 1% w/v working solution in phosphate buffered saline (PBS), which was filter sterilised. Chromogen absorbance was monitored at 570 nm on an absorbance microplate reader after plates were allowed to equilibrate in atmospheric conditions at room temperature for at least 5 min.
(§2) After absorbances were measured, data were processed as followed unless indicated otherwise in the text. […] Prism 8 (GraphPad) was used to plot dose-response curves and calculate IC50 values, using a least squares regression, log[inhibitor] vs normalised response (variable slope, four parameters) model. Where replicate plates were used, data for dose-response curves were plotted as the mean±SD of these replicates.
(§3) A selection of 17 compounds assayed in the high-throughput screen (HTS) for T. vaginalis which were available through BioAustralis were obtained for validation of inhibitory in/activity in our optimised medium-throughput format. For this, a 10-point serial dilution was used for drug-susceptibility testing to calculate IC50 values of ‘hit’ compounds. Mtz was used as a positive control. Each screen was performed with 3 technical replicates and a minimum of 2 biological replicates in both T. vaginalis and T. foetus using assay conditions of seeds of 10,000 cells/mL in 50 μL, with absorbance measured at 48 h. Dose response curves and IC50 were calculated for each compound as described above in Section 2.3.

[2] = tested on: nontumorigenic neonatal foreskin fibroblast (NFF) cell line
T. vaginalis = assay: Medium-throughput (MTS) confirmatory dose-response growth assay, T. vaginalis; format: cell-based, Trichomonas vaginalis; details: for activity against T. vaginalis in MTS, in words: 10-point dilution series, 96-well; for activity against T. vaginalis in MTS, in words / IC50: 48 h; for IC50: Trichomonas vaginalis, 96-well, 10,000 cells/mL in 50 μL, mean ± SEM, >10 = no appreciable activity at highest dose; for species-specificity T. vaginalis vs T. foetus in MTS: comparison of MTS IC50 in both species
Description: as §1, §2, §3

[3] = tested on: Staphylococcus aureus (ATCC 25923); format: cell-based; details: 5 μg/mL
[4] = tested on: Trichomonas vaginalis G3 trophozoites; details: for T.vaginalis_Absorbance_Rep1 / T.vaginalis_Absorbance_Rep2: HTS, parasite screen at 1 µg/mL; for T.vaginalis_Absorbance_Rep1: replicate 1, raw absorbance; for T.vaginalis_Absorbance_Rep2: replicate 2, raw absorbance
[5] = tested on: Trichomonas vaginalis G3 trophozoites; assay: microbe, parasite or virus in culture; details: 48 h
[6] = read-out: T.vaginalis_%inb_Rep1
[7] = read-out: T.vaginalis_%inb_Rep2
[8] = NFF fibroblast screen at 5 µg/mL, A = active, I = inactive

Structure (SMILES)	antibacterial activity against Bacillus subtilis [1]	activity against T. foetus in MTS, in words (T. foetus; 10-point dilution series, 96-well)	IC50 (T. foetus) [µM]	cytotoxic activity (NFF) [2]	activity against T. vaginalis in MTS, in words (T. vaginalis)	activity against T. vaginalis in MTS, in words (T. vaginalis; listed as fumagillin)	IC50 (T. vaginalis) [µM]	antibacterial activity against Staphylococcus aureus [3]	T.vaginalis_Absorbance_Rep1 [4]	T.vaginalis_Absorbance_Rep2 [4]	inhibition of growth at 1 µg/mL [5, 6] [%]	inhibition of growth at 1 µg/mL [5, 7] [%]	NFF_Activity ([2]; NFF_NS1 screen at 5 µg/mL)	NFF_Activity [2, 8]	species-specificity T. vaginalis vs T. foetus in MTS (T. vaginalis)	T. vaginalis HTS result in words ([4]; 384-well, 25 μL, 10,000 cells/mL, 48 h, biological duplicates, hit = >50% inhibition)
CO[C@@H]1[C@H](OC(=O)/C=C/C=C/C=C/C=C/C(=O)O)CC[C@]2(CO2)[C@H]1[C@@]1(C)O[C@@H]1CC=C(C)C [Fumagillin, fumagillin, reference compound]	no anti-bacterial	near nanomolar potency	0.18 ± 0.03	no anti-bacterial nor cytotoxic activity	near nanomolar potency	true positives	0.26 ± 0.11	no anti-bacterial	1.617	1.25	48.9	45.5				
CN1C(=O)[C@]23CC4=CC=C[C@H](O)[C@H]4N2C(=O)[C@@]1(CO)SS3 [Gliotoxin, gliotoxin, reference compound]			> 10		no activity		> 10		2.103	1.862	71	78.7	A (active (A) compounds having >25% inhibitory activity)			
N#Cc1cn([C@@H]2O[C@H](CO)[C@@H](O)[C@H]2O)c2ncnc(N)c12 [Toyocamycin, toyocamycin, reference compound]			2.4 ± 0.7		true positives		0.3 ± 0.01				69.9	77.5		I (otherwise these were reported as inactive (I))	remained active against both T. vaginalis and T. foetus	supported the anti-trichomonal activity
Nc1ncnc2c1ccn2[C@@H]1O[C@H](CO)[C@@H](O)[C@H]1O [Tubercidin, tubercidin]			> 10		true positives		2.4 ± 0.1				63.8	76		A (active (A) compounds having >25% inhibitory activity)	selective activity against T. vaginalis but not T. foetus	
